Results from the Kinase Knowledgebase extract (Sharma et al. 2016).

Biological target: MAPK14 (UniProt Q16539)
Assay: Inhibition of MAPK14 Kinase Activity

Chain of MAPK14 (Q16539 whole entry, looked up): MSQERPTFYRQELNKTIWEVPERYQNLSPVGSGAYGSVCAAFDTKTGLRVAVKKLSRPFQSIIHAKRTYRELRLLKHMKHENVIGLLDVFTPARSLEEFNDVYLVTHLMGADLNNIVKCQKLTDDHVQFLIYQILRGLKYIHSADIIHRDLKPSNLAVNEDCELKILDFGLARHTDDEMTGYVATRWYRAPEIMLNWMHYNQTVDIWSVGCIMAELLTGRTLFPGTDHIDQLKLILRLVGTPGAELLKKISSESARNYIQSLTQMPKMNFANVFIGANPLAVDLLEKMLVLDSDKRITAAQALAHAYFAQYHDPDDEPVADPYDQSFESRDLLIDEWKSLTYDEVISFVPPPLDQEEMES

| IC50 [µM] | SMILES |
| --- | --- |
| ≤ 5 | CC(C)S(=O)(=O)n1c(N)nc2ccc(-c3nc(-c4ccc(F)cc4F)[nH]c3-c3ccc(F)cc3F)cc21 |
| ≤ 5 | CC(C)S(=O)(=O)n1c(N)nc2ccc(-c3c(-c4ccccc4)nc(-c4c(F)cccc4F)n3C)cc21 |
| ≤ 5 | CC(C)S(=O)(=O)n1c(N)nc2ccc(-c3c(-c4ccccc4F)nc(-c4c[nH]nn4)n3C3CC3)cc21 |
| ≤ 5 | Nc1nc2ccc(-c3nc(-c4c(F)cccc4F)[nH]c3-c3ccccc3)cc2n1S(=O)(=O)C1CCCC1 |
| ≤ 5 | CC(C)S(=O)(=O)n1c(N)nc2ccc(-c3c(-c4ccc(F)cc4F)ncn3C)cc21 |
| ≤ 5 | CC(C)S(=O)(=O)n1c(N)nc2ccc(-c3c(-c4ccccc4)nc4ccccn34)cc21 |
| ≤ 5 | CC(C)S(=O)(=O)n1c(N)nc2ccc(-c3c(-c4ccccc4)ncn3CCO)cc21 |
| ≤ 5 | COc1ccc(Cn2cnc(-c3ccccc3)c2-c2ccc3ncn(S(=O)(=O)C(C)C)c3c2)cc1 |
| ≤ 5 | CC(C)S(=O)(=O)n1c(N)nc2ccc(-c3nc(C4CCN(C(=O)OC(C)(C)C)CC4)[nH]c3-c3ccc(F)cc3)cc21 |
| ≤ 5 | CC(C)S(=O)(=O)n1c(N)nc2ccc(-c3nc(-c4ncc[nH]4)[nH]c3-c3ccccc3)cc21 |
| ≤ 5 | CC(C)S(=O)(=O)n1c(N)nc2ccc(C3C(c4ccccc4)N=C4C=CC(Cl)=CN43)cc21 (stereo not given) |
| ≤ 5 | Cc1nc(-c2ccc3nc(N)n(S(=O)(=O)C(C)C)c3c2)c(-c2ccc(F)cc2F)[nH]1 |
| ≤ 5 | CC(C)S(=O)(=O)n1c(N)nc2ccc(-c3nc(-c4c(F)cc(OCCN5CCCC5)cc4F)[nH]c3-c3ccccc3)cc21 |
| ≤ 5 | CC(C)S(=O)(=O)n1c(N)nc2ccc(-c3nc(-c4c(Cl)cccc4Cl)[nH]c3-c3ccc(F)cc3)cc21 |
| ≤ 5 | CC(C)CN1CCC(c2nc(-c3ccc4nc(N)n(S(=O)(=O)C(C)C)c4c3)c(-c3ccccc3)[nH]2)CC1 |
| ≤ 5 | CC(C)S(=O)(=O)n1c(N)nc2ccc(-c3c(-c4ccccc4)nc4n3CCC4)cc21 |
| ≤ 5 | Cc1ccc(-c2nc(-c3ccc4nc(N)n(S(=O)(=O)C(C)C)c4c3)c(-c3ccccc3)[nH]2)cc1 |
| ≤ 5 | CC(C)S(=O)(=O)n1c(N)nc2ccc(-c3c(-c4ccccc4)ncn3C3CCC(O)CC3)cc21 (stereo not given) |
| ≤ 5 | CC(C)S(=O)(=O)n1c(N)nc2ccc(-c3nc(CN(C)CCN(C)C)[nH]c3-c3ccccc3)cc21 |
| ≤ 5 | CC(C)S(=O)(=O)n1c(N)nc2ccc(-c3nc(-c4ccc(N)cc4)[nH]c3-c3ccccc3)cc21 |

| IC50 [µM] | SMILES |
| --- | --- |
| ≤ 5 | CC(C)S(=O)(=O)n1c(N)nc2ccc(-c3nc(-c4ccccc4F)[nH]c3-c3ccccc3)cc21 |
| ≤ 5 | CC(C)S(=O)(=O)n1c(N)nc2ccc(-c3c(-c4ccc(F)cc4)ncn3C3CCNCC3)cc21 |
| ≤ 5 | Cc1cc(F)ccc1-c1[nH]c(-c2ccc(F)cc2)nc1-c1ccc2nc(N)n(S(=O)(=O)C(C)C)c2c1 |
| ≤ 5 | CC(C)S(=O)(=O)n1c(N)nc2ccc(-c3c(-c4ccccc4)ncn3C3CCN(C)CC3)cc21 |
| ≤ 5 | CC(C)S(=O)(=O)n1c(N)nc2ccc(-c3nc(C4CCOCC4)[nH]c3-c3ccc(F)cc3)cc21 |
| ≤ 5 | CC(C)S(=O)(=O)n1c(N)nc2ccc(-c3nc(-c4ccc(N(C)C)cc4)[nH]c3-c3ccccc3)cc21 |
| ≤ 5 | CC(C)S(=O)(=O)n1c(N)nc2ccc(-c3c(-c4ccccc4)ncn3[C@@H]3CCCC[C@H]3CO)cc21 |
| ≤ 5 | CC(C)S(=O)(=O)n1c(N)nc2ccc(-c3c(-c4ccc(F)cc4F)ncn3C3CCCCC3)cc21 |
| ≤ 5 | CC(C)S(=O)(=O)n1c(N)nc2ccc(-c3nc(-c4ccc(Cl)s4)[nH]c3-c3ccc(F)cc3)cc21 |
| ≤ 5 | CC(C)S(=O)(=O)n1c(N)nc2ccc(-c3c(-c4cccc(F)c4)ncn3[C@H]3CC[C@H](O)CC3)cc21 |
| ≤ 5 | CC(C)S(=O)(=O)n1c(N)nc2ccc(-c3c(-c4ccc(F)cc4)ncn3C3CCCC3)cc21 |
| ≤ 5 | CC(C)S(=O)(=O)n1c(N)nc2ccc(-c3nc(-c4ccc(N5CCCC5)cc4)[nH]c3-c3ccccc3)cc21 |
| ≤ 5 | CC(C)S(=O)(=O)n1c(N)nc2ccc(-c3nc(-c4ccccc4Cl)[nH]c3-c3ccccc3)cc21 |
| ≤ 5 | CC(C)S(=O)(=O)n1c(N)nc2ccc(-c3nc(CN4CCCCC4)[nH]c3-c3ccccc3)cc21 |
| ≤ 5 | CC(C)S(=O)(=O)n1c(N)nc2ccc(-c3nc(C4CCOCC4)[nH]c3-c3ccccc3)cc21 |
| ≤ 5 | CC(C)S(=O)(=O)n1c(N)nc2ccc(-c3nc(-c4ccc(C(F)(F)F)cc4)[nH]c3-c3ccccc3)cc21 |
| ≤ 5 | Nc1ccccc1Cc1nc2ccc(-c3[nH]cnc3-c3ccccc3)cc2[nH]1 |
| ≤ 5 | CC(C)S(=O)(=O)n1c(N)nc2ccc(-c3c(-c4ccccc4)ncn3C3CCN(C(=O)OC(C)(C)C)CC3)cc21 |
| ≤ 5 | Cc1nc(-c2ccccc2)c(-c2ccc3nc(N)n(S(=O)(=O)C(C)C)c3c2)s1 |
| ≤ 5 | CC(C)S(=O)(=O)n1c(N)nc2ccc(-c3nc(C4CCNCC4)[nH]c3-c3ccccc3)cc21 |

| IC50 [µM] | SMILES |
| --- | --- |
| ≤ 5 | CC(C)S(=O)(=O)n1c(N)nc2ccc(-c3c(-c4ccccc4)nc(-c4cccs4)n3C)cc21 |
| ≤ 5 | Cc1cccc(-c2[nH]c(C)nc2-c2ccc3nc(N)n(S(=O)(=O)C(C)C)c3c2)c1 |
| ≤ 5 | CC(C)S(=O)(=O)n1c(N)nc2ccc(-c3cn[nH]c3-c3ccccc3)cc21 |
| ≤ 5 | CC(C)S(=O)(=O)n1c(N)nc2ccc(-c3nc(-c4cccc(OCCN5CCCCC5)c4)[nH]c3-c3ccccc3)cc21 |
| ≤ 5 | CC(C)S(=O)(=O)n1c(N)nc2ccc(-c3nc(C4CCN(Cc5ccccc5)CC4)[nH]c3-c3ccccc3)cc21 |
| ≤ 5 | CC(C)S(=O)(=O)n1c(N)nc2ccc(-c3c(-c4ccccc4)ncn3CCCc3ccccc3)cc21 |
| ≤ 5 | CC(C)S(=O)(=O)n1c(N)nc2ccc(-c3nc(-c4ccc([N+](=O)[O-])cc4)[nH]c3-c3ccccc3)cc21 |
| ≤ 5 | CC(C)S(=O)(=O)n1c(N)nc2ccc(-c3c(-c4ccccc4)nn4c3CCC4)cc21 |
| ≤ 5 | CC(C)S(=O)(=O)n1c(N)nc2ccc(-c3nc(C4CCN(C)CC4)[nH]c3-c3ccccc3)cc21 |
| ≤ 5 | CC(C)S(=O)(=O)n1c(N)nc2ccc(-c3nc(-c4ccc([N+](=O)[O-])s4)[nH]c3-c3ccccc3)cc21 |
| ≤ 5 | CC(C)S(=O)(=O)n1c(N)nc2ccc(-c3nn[nH]c3-c3ccccc3)cc21 |
| ≤ 5 | CC(C)S(=O)(=O)n1c(N)nc2ccc(-c3nc(-c4ccc(NS(C)(=O)=O)cc4)[nH]c3-c3ccccc3)cc21 |
| ≤ 5 | COc1ccc(C2N=C3C(C)=CC=CN3C2c2ccc3nc(N)n(S(=O)(=O)C(C)C)c3c2)cc1 (stereo not given) |
| ≤ 5 | NCCc1nc2ccc(-c3c(-c4ccccc4)ncn3C3CCCCC3)cc2s1 |
| ≤ 5 | CC(C)S(=O)(=O)n1c(N)nc2ccc(-c3nc(C4CCN(Cc5ccccn5)CC4)[nH]c3-c3ccccc3)cc21 |
| ≤ 5 | CC(C)S(=O)(=O)n1c(N)nc2ccc(-c3nc(-c4ccccc4N4CCOCC4)[nH]c3-c3ccccc3)cc21 |
| ≤ 5 | NCCc1nc2ccc(-c3nc(-c4c(F)cccc4F)[nH]c3-c3ccccc3)cc2[nH]1 |
| ≤ 5 | CC1=CC2=NC(c3ccccc3)C(c3ccc4nc(N)n(S(=O)(=O)C(C)C)c4c3)N2C=C1 (stereo not given) |
| ≤ 5 | CC(C)S(=O)(=O)n1c(N)nc2ccc(-c3c(-c4ccc(F)cc4)ncn3[C@H]3CC[C@H](O)CC3)cc21 |
| ≤ 5 | CC(C)S(=O)(=O)n1c(N)nc2ccc(-c3c(-c4ccccc4F)nc(C#C[Si](C)(C)C)n3C3CC3)cc21 |
